The source of these data is ChEMBL document CHEMBL3588822, “Synthetic 1,2,3-triazole-linked glycoconjugates bind with high affinity to human galectin-3” (Bioorg Med Chem, 2015).

For assay [1], the target named is T1, Galectin-3 (Homo sapiens, UniProt P17931). As to the kind of experiment: Inhibition of human recombinant wild type galectin 3 after 60 mins by surface plasmon resonance immunosensor assay. For orientation: In SPR one partner is held on a chip, and binding of the other changes the refractive index at the surface.
T1 sequence (P17931 whole entry, the tested form may be a part): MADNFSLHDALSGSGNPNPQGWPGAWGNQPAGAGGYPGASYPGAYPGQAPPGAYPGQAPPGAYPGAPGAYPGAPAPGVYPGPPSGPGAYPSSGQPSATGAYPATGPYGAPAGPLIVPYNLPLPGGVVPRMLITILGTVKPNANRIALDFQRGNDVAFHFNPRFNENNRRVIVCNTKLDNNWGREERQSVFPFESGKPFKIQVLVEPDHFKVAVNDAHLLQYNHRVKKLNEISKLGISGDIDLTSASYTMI
Assay [2] has as its target T1, Galectin-3. As to the kind of experiment: Inhibition of human recombinant wild type galectin 3 first carbohydrate recognition domain after 60 mins by surface plasmon resonance immunosensor assay.
Assay [3] addresses T1, Galectin-3. In words: Inhibition of human recombinant wild type galectin 3 second carbohydrate recognition domain after 60 mins by surface plasmon resonance immunosensor assay.

On to `CO[C@H]1O[C@H](CO)[C@H](O)[C@H](OCc2cn([C@@H](Cc3cc4ccccc4[nH]3)C(=O)O)nn2)[C@H]1O`, for which the Kd at Galectin-3 [1] is 28.1 µM.
Consider `OC[C@H]1O[C@@H](O[C@H]2[C@H](O)[C@@H](O)[C@H](OCCOCCOCCn3cc(CO[C@@H]4O[C@H](CO)[C@@H](O[C@@H]5O[C@H](CO)[C@H](O)[C@H](O)[C@H]5O)[C@H](O)[C@H]4O)nn3)O[C@@H]2CO)[C@H](O)[C@@H](O)[C@H]1O`, for which the Kd on Galectin-3 [2] came to 500 nM; on Galectin-3 [3] it was 19 µM.
Take `CO[C@H]1O[C@H](CO)[C@H](O)[C@H](OCc2cn([C@@H](CCCCN)C(=O)O)nn2)[C@H]1O`: the Kd at Galectin-3 [1] is 4.56 µM.
For the compound `CO[C@H]1O[C@H](CO)[C@H](O)[C@H](OCc2cn([C@@H](Cc3ccccc3)C(=O)O)nn2)[C@H]1O`, the Kd on Galectin-3 [1] worked out at 7.96 µM.
On the same count and under the same terms, next, `CO[C@H]1O[C@H](CO)[C@H](O)[C@H](OCc2cn([C@H](C(=O)O)[C@@H](C)O)nn2)[C@H]1O`: 88.2 µM; `CO[C@H]1O[C@H](CO)[C@H](O)[C@H](OCc2cn([C@@H](CC(=O)O)C(=O)O)nn2)[C@H]1O`: 11.1 µM; `CO[C@H]1O[C@H](CO)[C@H](O)[C@H](OCc2cn([C@@H](Cc3ccc(O)cc3)C(=O)O)nn2)[C@H]1O`: 19.9 µM.

As a reminder, the Kd is a measure of binding affinity in units of concentration.
